Laboratory results published in patent US20250241878A1, “TYROSINE AND RESVERATROL DERIVATIVES AS NOVEL MODULATORS OF CELLULAR SERINE ADP-RIBOSYLATION” (UNIVERSITY OF SOUTH CAROLINA, priority 2022, published 2025).

Assays:
AcK56-H3 and AcK16-H4 = experiment: Histone acetylation immunoblot (AcK56-H3, AcK16-H4); format: cell-based, rat; design: dose or concentration left out as unconfirmed
cortical neurons = experiment: DNA fiber analysis (CIdU incorporation); format: cell-based, rat
Experimental: Molecular combing was performed using the FiberComb® Molecular Combing System (Genomic Vision) with a constant stretching factor of 2 kb/μm using […] coverslips (20×20 mm; Genomic Vision). […] The coverslips were then washed with PBS, followed by serial ethanol dehydration (70%-100%). Following two 1×PBS washes, the coverslips were blocked in 3% BSA/1×PBS for 30 min followed by incubation with α-BrdU (for CIdU) (BD [347,580]) (1:100) and ssDNA antibody (MilliporeTM MAB3034) (1:100), for 2 hr at 37° C. After three PBST washes, secondary antibody incubation was done using α-mouse Alexa Fluor® 594 and α-rat Alexa Fluor® 488 (1:500) for 1 hr at 37° C. Coverslips were washed three times with 1×PBST, dehydrated and mounted on slides with mounting media. The stained DNA fibers were visualized using a fluorescence microscope (EVOS FL, Thermo FisherTM Scientific). Analysis was performed in ImageJ by counting the total ssDNA and the CIdU labeled fibers. For each treatment condition, 300 fibers were counted, and the average ratio of CIdU incorporation for ssDNA fibers per condition was used for final representation.

eIF2α = experiment: p-eIF2α Western blot in cortical neurons; format: cell-based, rat; conditions: compound alone
Experimental: Primary cortical neurons were dissected from E18 Sprague Dawley rat pups in Hibernate E (BrainBits®) and dissociated using the Neural Tissue Dissociation kit (Miltenyi Biotec). […] After washing and centrifugation, neurons were seeded in 50 μg/ml poly-D-Lysine (Sigma-Aldrich) coated tissue culture plates. NBActive-1 medium (BrainBits®) supplemented with 100 U/ml of Penicillin-Streptomycin (Life TechnologiesTM), 2 mM L-Glutamine (Life TechnologiesTM), and 1×[…] supplement (R&D SystemsTM) was used as culture medium. For preparation of culture medium containing reduced tyrosine, the components of NBActive-1 medium were altered to combined with a reduced concentration of tyrosine, as mentioned in Table 1, and was supplemented with 100 U/ml of Penicillin-Streptomycin (Life TechnologiesTM), 2 mM L-Glutamine (Life TechnologiesTM), and 1×[…] supplement (R&D SystemsTM) to obtained culture medium with reduced tyrosine. […] For PARP1 siRNA, neurons at 7 DIV were transfected with 75 nM siRNA for both control and PARP1 siRNA. […] The lysates were centrifuged at 10,000 RPM for 15 mins at 4° C. to separate the chromatin-bound and soluble fractions. Lysates were quantified using Bio-RadTM Protein Assay and equal amounts of protein were loaded onto a 4 to 12% gradient gel (InvitrogenTM NuPAGETM). […] Quantification of western blots was done using ImageJ (Version 1.53c).

γ-H2AX = γ-H2AX foci immunostaining in cortical neurons; format: cell-based, rat; conditions: for γ-H2AX (DNA damage marker): compound alone
Experimental: Cultured cortical neurons (DIV 9-10) were fixed in 4% formaldehyde for 15 min, followed by permeabilization and blocking for 30 min in 5% BSA (PBS) and 0.1% Tween™ 20 at room temperature. Incubation with primary antibodies was done at 4° C. overnight. The names and dilutions of the primary antibodies used for IF are described in Table 3. Secondary antibodies were incubated for 1 hr at room temperature. Secondary antibodies used were Alexa Fluor® 647 (anti-chicken), Alexa Fluor® 555 (anti-mouse), Alexa Fluor® 488 (anti-rabbit) from Invitrogen™ at 1:1000 dilution. Coverslips were then mounted using DAPI (4′,6-diamidino-2-phenylindole)-supplemented mounting medium, ProLong™ Gold Antifade (Invitrogen™) and imaged with Leica DMI6000 epifluorescent microscope using oil immersion 63×/NA 1.4 objective. The quantification for total protein levels in neurons was done using ImageJ (version 1.53c), and imaging parameters were matched for exposure, gain, and offset.

[1] = molecular target: T1, interaction of eEF2 with TyrRS and PP2A (Rattus norvegicus, UniProt Q4KM49); experiment: eEF2 immunoprecipitation probed for PP2A and TyrRS; format: cell-based; conditions: compound alone
T1 construct: endogenous in cells; host or cells: primary rat (E18 Sprague Dawley) cortical neurons
T1 sequence (Q4KM49 1-528): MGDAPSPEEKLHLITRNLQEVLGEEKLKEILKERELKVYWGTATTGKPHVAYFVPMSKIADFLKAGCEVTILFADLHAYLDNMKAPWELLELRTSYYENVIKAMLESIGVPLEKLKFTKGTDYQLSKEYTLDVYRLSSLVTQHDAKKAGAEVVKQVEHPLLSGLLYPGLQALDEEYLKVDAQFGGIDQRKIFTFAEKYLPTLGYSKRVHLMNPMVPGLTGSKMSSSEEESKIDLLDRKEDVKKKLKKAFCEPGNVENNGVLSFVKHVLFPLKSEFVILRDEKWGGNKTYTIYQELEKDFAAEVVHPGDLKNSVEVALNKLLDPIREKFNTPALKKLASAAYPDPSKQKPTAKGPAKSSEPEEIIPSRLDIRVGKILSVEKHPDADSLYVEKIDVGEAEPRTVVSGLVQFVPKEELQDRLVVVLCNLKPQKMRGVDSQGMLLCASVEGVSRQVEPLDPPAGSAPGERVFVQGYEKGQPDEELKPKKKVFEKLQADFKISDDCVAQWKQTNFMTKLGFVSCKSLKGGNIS
Text: Immunoprecipitated eEF2 was probed for its interaction with PP2A and TyrRS using their specific antibodies.

PARP1 = conditions: previously observed; cited from earlier work

SMILES	AcK16-H4 acetylation (AcK56-H3 and AcK16-H4; trans-RSV)	AcK56-H3 acetylation (AcK56-H3 and AcK16-H4; trans-RSV)	incorporation of nucleoside analog CIdU into DNA fibers (cortical neurons; compound alone)	p-eIF2α levels (eIF2α)	γ-H2AX (DNA damage marker) (γ-H2AX)	interaction of eEF2 with TyrRS and PP2A [1]	auto-PARylation of PARP1 (PARP1)	AcK16-H4 acetylation (AcK56-H3 and AcK16-H4; cis-RSV)	reduction of CIdU incorporation compared to control (cortical neurons; after cis-RSV treatment)	γ-H2AX levels (γ-H2AX; added after 12 hr of tyrosine pretreatment)	effect on tyrosine-induced accumulation of γ-H2AX (γ-H2AX; combination with tyrosine)	γ-H2AX levels after ETO-mediated DNA damage (γ-H2AX; with etoposide (ETO))
Oc1ccc(/C=C/c2cc(O)cc(O)c2)cc1 [trans-RSV, trans-resveratrol]	inhibited H3 and H4 acetylation at lysines 56 and 16	inhibited H3 and H4 acetylation at lysines 56 and 16	prevented the incorporation of the nucleoside analog CIdU into DNA fibers	sustained the inhibition of eIF2α	caused the accumulation of γ-H2AX and 8-oxo-dG	decreased their interactions	–	–	–	–	–	–
N[C@@H](Cc1ccc(O)cc1)C(=O)O [tyrosine, L-tyrosine]	–	–	–	–	accumulation of γ-H2AX foci	decreased their interactions	inhibits the auto-PARylation of PARP1	–	–	–	–	–
Oc1ccc(/C=C\c2cc(O)cc(O)c2)cc1 [cis-RSV, cis-resveratrol]	–	–	–	triggered a transient increase in the levels of p-eIF2α	–	facilitated the interaction of eEF2 with TyrRS and PP2A	stimulate the auto-PARylation	increased the acetylation of H4 lysine 16	15-20%	reduced γ-H2AX levels	rescued tyrosine-induced accumulation of γ-H2AX and 8-oxo-dG	decreased levels of γ-H2AX
